Source: patent US7670836B2, “Antimicrobial peptide isolated from Penaeus monodon” (priority 2003, dated 2010)
Values after ≈ are worked out from the molar mass of the structure shown. Read-outs that look alike come from different tables or passages of the source. No end group written: not given here.

Legend:
[1] = tested on: Salmonella choleraesuis Strand 75
Protocol: (§3) The minimal inhibitory concentration (MIC) and minimal bactericidal concentration (MBC) were obtained to determine bacteriostatic and bactericidal activities, respectively, for each strain of the bacteria listed above. […] The lowest concentration which inhibited bacterial growth was deemed the MIC. The MBC was determined by spreading 100 μl from each tube of the MIC on an LB or TSA plate and incubating overnight.

[2] = tested on: Salmonella choleraesuis Strand 74
Protocol: as §3

[3] = tested on: Fusarium pisi; test: MIC and MBC analysis against the filamentous fungus Fusarium pisi; assay type: cell-based
Protocol: (§1) Monodoncin was tested for its antibacterial activities against various Gram (−) bacteria, including E. coli, Vibrio harveyi, Vibrio alginolyticus, and Salmonella cholesaesuis, various Gram (+) bacteria, such as Aerococcus viridian, and filamentous fungi, such as Fusarium pisi.

[4] = tested on: Fusarium oxysporum; test: MIC and MBC analysis against the filamentous fungus Fusarium oxysporum; assay type: cell-based
[5] = tested on: E. coli; test: microbe, parasite or virus in culture
Protocol: as §1
(§2) The bacteria were cultured under conventional methods. For example, E. coli strain was cultured in LB, 37° C. The marine microorganisms that are pathogenic for shrimp, such as Vibrio harveyi and Vibrio alginolyticus, were cultured in trypticase soy broth/agar (1.5% NaCl), 25° C.

[6] = tested on: Vibrio alginolyticus; test: microbe, parasite or virus in culture
Protocol: as §1, §2

[7] = tested on: Vibrio harveyi; test: microbe, parasite or virus in culture
Protocol: as §1, §2

[8] = tested on: Aerococcus viridian; test: Bacteriostatic (MIC) and bactericidal (MBC) analysis against Aerococcus viridian; assay type: cell-based
Protocol: as §1

[9] = tested on: Vibrio harveyi; test: Mortality of tiger shrimp after Vibrio harveyi challenge (FIG. 5); assay type: in vivo, Penaeus monodon
Protocol: (-⋄-): PBS control (negative control); (-▪-): Vibrio harveyi challenge (positive control); (-▴-): cecropin+Vibrio harveyi (non-monodoncin treatment group); (-●-): monodoncin+Vibrio harveyi (monodoncin treatment group).
Vibrio harveyi is a gram-negative marine bacterium that is in the natural living environment of the tiger shrimp. A suspension of the microorganism […] containing 10^5 cells was used for each tiger shrimp. The suspension was injected into the shrimp abdominal muscle. Hemocytes were collected as Example 1 at different times (from 0 to 72 hours) post-injection. Unchallenged animals were used as controls.

[10] = tested on: E. coli; test: SEM analysis of interaction of monodoncin with E. coli; assay type: cell-based, Escherichia coli; conditions: monodoncin 10 μM, 12 hrs of treatment
Protocol: Monodoncin at […] was used to treat E. Coli and Vibrios, and the pathogens prior to and after the treatment were monitored under Scanning Electron Microscope (SEM) and Atomic Force Microscope (AFM).
Scanning electron microscopy (SEM) was conducted by incubating […] of E. coli (109 C.F.U./ml) with or without 50 μl monodoncin (10000 μM) at 37° C. for 1 h, 3 h, 6 h, and 12 h. Three milliliters of each of the bacterial suspensions (at various time frames) were fixed by adding 1 ml of 6% glutaraldehyde in 0.1 M sodium cacodylate trihydrate buffer (pH 6.8). After fixation for 1 h at […], the bacterial suspensions were pelleted, the used fixative was removed, 2 ml of the new fixative were added, and the bacteria were incubated for 5 min at […] Two additional 5-min fixations were conducted, followed by addition of 2 ml of 1% osmium tetroxide in 0.1 M cacodylate buffer, and the fixation was allowed to proceed for 30 min at […] The osmium tetroxide was removed, and the bacterial suspensions were washed in 2 ml of 0.1 M cacodylate buffer. […] The SEM mounts were then sputter coated with gold (Edwards S150A sputter coater; Edwards High Vacuum, Crawley, West Sussex, England) and analyzed on a Hitachi H300-3010 scanning image accessory electron microscope.

`CC1(C)S[C@@H]2[C@H](NC(=O)[C@H](N)c3ccc(O)cc3)C(=O)N2[C@H]1C(=O)O` [Amoxicillin, amoxicillin] was tested, and the MIC ([1]; Strand 75, amoxicillin alone) was over 64 µg and the MIC ([2]; Strand 74, amoxicillin alone) was over 64 µg.

magainins gave an MBC [3] of 1 µM, an MIC [3] of 1 µM and an MBC [4] of 1 µM. For the same molecule, the MIC [4] was 1 µM, the MBC ([5]; E. coli) was 70 µM and the MIC ([5]; E. coli) was 40 µM. It also gave an MBC ([6]; Vibrio alginolyticus) of 300 µM, an MIC ([6]; Vibrio alginolyticus) of 150 µM and an MBC ([7]; Vibrio harveyi) of 30 µM. It also gave an MIC ([7]; Vibrio harveyi) of 30 µM, an MBC [8] of 5 µM and an MIC [8] of 1 µM.

For Cecropin, the MBC ([1]; Strand 75, peptide alone) was over 31.2 µg/mL, the MIC ([1]; Strand 75, peptide alone) was 31.2 µg/mL and the MBC ([2]; Strand 74, peptide alone) was 31.2 µg/mL. It also gave an MIC ([2]; Strand 74, peptide alone) of 16.5 µg/mL.

`CN(C)[C@@H]1C(O)=C(C(N)=O)C(=O)[C@@]2(O)C(O)=C3C(=O)c4c(O)cccc4[C@@](C)(O)[C@H]3C[C@@H]12` [Tetracycline, tetracycline] gave an MBC ([3]; Fusarium vanettenii) of over 500 µM, an MIC ([3]; Fusarium vanettenii) of 300 µM (≈ 133 µg/mL) and an MBC [4] of 500 µM (≈ 222 µg/mL). For the same molecule, the MIC [4] was 500 µM (≈ 222 µg/mL), the MBC ([5]; Escherichia coli) was 403 µM (≈ 179 µg/mL) and the MBC ([6]; Vibrio alginolyticus) was over 202 µM. For the same molecule, the MIC ([6]; Vibrio alginolyticus) was 25.2 µM (≈ 11.2 µg/mL), the MBC ([7]; Vibrio harveyi) was 403 µM (≈ 179 µg/mL) and the MIC ([7]; Vibrio harveyi) was 6.3 µM (≈ 2.8 µg/mL). The MBC [8] was 300 µM (≈ 133 µg/mL) and the MIC [8] was 30 µM (≈ 13.3 µg/mL).

Molecule “GWGSFFKKAAHVGKHVGKAALTHYL-NH2 (C-terminus assumed) [Pleurocidin, pleurocidin]” has an MBC [5] of 500 µM, an MIC [5] of 450 µM and an MBC [6] of over 500 µM. It also gave an MIC [6] of 500 µM, an MBC [7] of 200 µM and an MIC [7] of 200 µM.

With “QGYQGGYTRPFPRPPYGGGYHPVPVCTSCHRLSPLQARACCRQLGRCCDAKQTYG (cysteines drawn unpaired) [Monodoncin]” the “mortality rate relative to that in the untreated group” value [9] was 40%, the “reduction of tiger shrimp mortality” value [9] was “at least 40%” and the “number of bacteria in the culture” value [10] was “significantly reduced”.
